Reference: ChEMBL document CHEMBL4622899, “Synthesis and anticancer activity of open-resorcinarene conjugates” (Bioorg Med Chem Lett, 2020)

Columns and labels:
[1] = test system: U-251; test: Anticancer activity against human U251 cells assessed as cell growth inhibition measured after 48 hrs by MTT assay; type: functional, cell-based
[2] = test system: PC-3; test: Anticancer activity against human PC3 cells assessed as cell growth inhibition measured after 48 hrs by MTT assay; type: functional, cell-based
[3] = test system: K562; test: Anticancer activity against human K562 cells assessed as cell growth inhibition measured after 48 hrs by MTT assay; type: functional, cell-based
[4] = test system: HCT-15; test: Anticancer activity against human HCT15 cells assessed as cell growth inhibition measured after 48 hrs by MTT assay; type: functional, cell-based
[5] = test system: MCF7; test: Anticancer activity against human MCF7 cells assessed as cell growth inhibition measured after 48 hrs by MTT assay; type: functional, cell-based
[6] = test system: SK-LU-1; test: Anticancer activity against human SKLU1 cells assessed as cell growth inhibition measured after 48 hrs by MTT assay; type: functional, cell-based
[7] = test system: COS-7; test: Cytotoxicity against African green monkey COS7 cells assessed as cell growth inhibition measured after 48 hrs by MTT assay; type: cell-based, Chlorocebus aethiops
[8] = Homo sapiens, U-251, 48 h, read-out: IC50
[9] = Homo sapiens, PC-3, 48 h, read-out: IC50
[10] = Homo sapiens, K562, 48 h, read-out: IC50
[11] = Homo sapiens, HCT-15, 48 h, read-out: IC50
[12] = Homo sapiens, MCF7, 48 h, read-out: IC50
[13] = Homo sapiens, SK-LU-1, 48 h, read-out: IC50
[14] = Chlorocebus aethiops, COS-7, 48 h, read-out: IC50

SMILES | IC50 ([1]; u-251) | IC50 ([2]; pc-3) | IC50 ([3]; k562) | IC50 ([4]; hct-15) | IC50 ([5]; mcf7) | IC50 ([6]; sk-lu-1) | IC50 ([7]; cos-7) | IC50 [1, 8] | IC50 [2, 9] | IC50 [3, 10] | IC50 [4, 11] | IC50 [5, 12] | IC50 [6, 13] | IC50 [7, 14]
COC(=O)COc1cc(OCC(=O)OC)c(C(c2ccc(C(c3cc(Cl)c(OCC(=O)OC)cc3OCC(=O)OC)c3cc(Cl)c(OCC(=O)OC)cc3OCC(=O)OC)cc2)c2cc(Cl)c(OCC(=O)OC)cc2OCC(=O)OC)cc1Cl | Not Active | Not Active | Not Active | Not Active | Not Active | Not Active | Not Active | – | – | – | – | – | – | –
Oc1cc(O)c(C(c2ccc(C(c3cc(Cl)c(O)cc3O)c3cc(Cl)c(O)cc3O)cc2)c2cc(Cl)c(O)cc2O)cc1Cl | Not Active | Not Active | Not Active | Not Active | Not Active | Not Active | Not Active | – | – | – | – | – | – | –
COc1ccc2c(c1)c(CC(=O)O)c(C)n2C(=O)c1ccc(Cl)cc1 [INDOMETHACIN] | – | – | – | – | – | – | – | 20.4 µM | > 1000 µM | 190 µM | > 1000 µM | > 1000 µM | > 1000 µM | > 1000 µM
CC(C)Cc1ccc(C(C)C(=O)OCCNC(=O)COc2cc(OCC(=O)NCCOC(=O)C(C)c3ccc(CC(C)C)cc3)c(C(c3ccc(C(c4cc(Cl)c(OCC(=O)NCCOC(=O)C(C)c5ccc(CC(C)C)cc5)cc4OCC(=O)NCCOC(=O)C(C)c4ccc(CC(C)C)cc4)c4cc(Cl)c(OCC(=O)NCCOC(=O)C(C)c5ccc(CC(C)C)cc5)cc4OCC(=O)NCCOC(=O)C(C)c4ccc(CC(C)C)cc4)cc3)c3cc(Cl)c(OCC(=O)NCCOC(=O)C(C)c4ccc(CC(C)C)cc4)cc3OCC(=O)NCCOC(=O)C(C)c3ccc(CC(C)C)cc3)cc2Cl)cc1 (configuration not stated) | – | – | – | – | – | – | – | > 1000 µM | > 1000 µM | > 1000 µM | > 1000 µM | > 1000 µM | > 1000 µM | > 1000 µM
COc1ccc2cc([C@H](C)C(=O)O)ccc2c1 [NAPROXEN] | – | – | – | – | – | – | – | > 1000 µM | > 1000 µM | 181 µM | > 1000 µM | > 1000 µM | > 1000 µM | > 1000 µM
O=C(COc1cc(OCC(=O)NCCOC(=O)CCCc2ccc(N(CCCl)CCCl)cc2)c(C(c2ccc(C(c3cc(Cl)c(OCC(=O)NCCOC(=O)CCCc4ccc(N(CCCl)CCCl)cc4)cc3OCC(=O)NCCOC(=O)CCCc3ccc(N(CCCl)CCCl)cc3)c3cc(Cl)c(OCC(=O)NCCOC(=O)CCCc4ccc(N(CCCl)CCCl)cc4)cc3OCC(=O)NCCOC(=O)CCCc3ccc(N(CCCl)CCCl)cc3)cc2)c2cc(Cl)c(OCC(=O)NCCOC(=O)CCCc3ccc(N(CCCl)CCCl)cc3)cc2OCC(=O)NCCOC(=O)CCCc2ccc(N(CCCl)CCCl)cc2)cc1Cl)NCCOC(=O)CCCc1ccc(N(CCCl)CCCl)cc1 | – | – | – | – | – | – | – | 24.3 µM | 34 µM | 51.4 µM | 201 µM | 81 µM | 80 µM | > 1000 µM
O=C(O)CCCc1ccc(N(CCCl)CCCl)cc1 [CHLORAMBUCIL] | – | – | – | – | – | – | – | 33.1 µM | 16.4 µM | 103 µM | 3.11 µM | > 100 µM | 300 µM | 43.5 µM
O=C(COc1cc(OCC(=O)NCCO)c(C(c2ccc(C(c3cc(Cl)c(OCC(=O)NCCO)cc3OCC(=O)NCCO)c3cc(Cl)c(OCC(=O)NCCO)cc3OCC(=O)NCCO)cc2)c2cc(Cl)c(OCC(=O)NCCO)cc2OCC(=O)NCCO)cc1Cl)NCCO | Not Active | Not Active | Not Active | Not Active | Not Active | Not Active | Not Active | – | – | – | – | – | – | –
COc1ccc2c(c1)c(CC(=O)OCCNC(=O)COc1cc(OCC(=O)NCCOC(=O)Cc3c(C)n(C(=O)c4ccc(Cl)cc4)c4ccc(OC)cc34)c(C(c3ccc(C(c4cc(Cl)c(OCC(=O)NCCOC(=O)Cc5c(C)n(C(=O)c6ccc(Cl)cc6)c6ccc(OC)cc56)cc4OCC(=O)NCCOC(=O)Cc4c(C)n(C(=O)c5ccc(Cl)cc5)c5ccc(OC)cc45)c4cc(Cl)c(OCC(=O)NCCOC(=O)Cc5c(C)n(C(=O)c6ccc(Cl)cc6)c6ccc(OC)cc56)cc4OCC(=O)NCCOC(=O)Cc4c(C)n(C(=O)c5ccc(Cl)cc5)c5ccc(OC)cc45)cc3)c3cc(Cl)c(OCC(=O)NCCOC(=O)Cc4c(C)n(C(=O)c5ccc(Cl)cc5)c5ccc(OC)cc45)cc3OCC(=O)NCCOC(=O)Cc3c(C)n(C(=O)c4ccc(Cl)cc4)c4ccc(OC)cc34)cc1Cl)c(C)n2C(=O)c1ccc(Cl)cc1 | – | – | – | – | – | – | – | 23.1 µM | > 1000 µM | > 1000 µM | > 1000 µM | > 1000 µM | > 1000 µM | > 1000 µM
COc1ccc2cc([C@H](C)C(=O)OCCNC(=O)COc3cc(OCC(=O)NCCOC(=O)[C@@H](C)c4ccc5cc(OC)ccc5c4)c(C(c4ccc(C(c5cc(Cl)c(OCC(=O)NCCOC(=O)[C@@H](C)c6ccc7cc(OC)ccc7c6)cc5OCC(=O)NCCOC(=O)[C@@H](C)c5ccc6cc(OC)ccc6c5)c5cc(Cl)c(OCC(=O)NCCOC(=O)[C@@H](C)c6ccc7cc(OC)ccc7c6)cc5OCC(=O)NCCOC(=O)[C@@H](C)c5ccc6cc(OC)ccc6c5)cc4)c4cc(Cl)c(OCC(=O)NCCOC(=O)[C@@H](C)c5ccc6cc(OC)ccc6c5)cc4OCC(=O)NCCOC(=O)[C@@H](C)c4ccc5cc(OC)ccc5c4)cc3Cl)ccc2c1 | – | – | – | – | – | – | – | 50.3 µM | > 1000 µM | > 1000 µM | > 1000 µM | > 1000 µM | > 1000 µM | > 1000 µM
CC(C)Cc1ccc(C(C)C(=O)O)cc1 (configuration not stated) [IBUPROFEN] | – | – | – | – | – | – | – | > 1000 µM | > 1000 µM | > 1000 µM | > 1000 µM | 92.1 µM | 90.6 µM | > 1000 µM
